In US20260108521A1, “GSPT1 DEGRADERS, COMPOSITIONS COMPRISING THE DEGRADER, AND METHODS OF USING THE SAME” (BIOFRONT LTD, priority 2022, published 2026):

Key:
[1] = molecular target: T1, GSPT1 protein (Homo sapiens, UniProt P15170+Q96SW2); assay: GSPT1 degradation assay (western blot) in HL-60 cells; type: cell-based; conditions: GSPT1 protein level, 2h incubation, western blot normalized to beta-Actin; for inhibition at 0.1 µM: 0.1 μM compound; for inhibition at 1 µM: 1 μM compound
T1 construct: endogenous in cells; host or cells: HL-60 cells
T1 sequence (P15170 whole entry): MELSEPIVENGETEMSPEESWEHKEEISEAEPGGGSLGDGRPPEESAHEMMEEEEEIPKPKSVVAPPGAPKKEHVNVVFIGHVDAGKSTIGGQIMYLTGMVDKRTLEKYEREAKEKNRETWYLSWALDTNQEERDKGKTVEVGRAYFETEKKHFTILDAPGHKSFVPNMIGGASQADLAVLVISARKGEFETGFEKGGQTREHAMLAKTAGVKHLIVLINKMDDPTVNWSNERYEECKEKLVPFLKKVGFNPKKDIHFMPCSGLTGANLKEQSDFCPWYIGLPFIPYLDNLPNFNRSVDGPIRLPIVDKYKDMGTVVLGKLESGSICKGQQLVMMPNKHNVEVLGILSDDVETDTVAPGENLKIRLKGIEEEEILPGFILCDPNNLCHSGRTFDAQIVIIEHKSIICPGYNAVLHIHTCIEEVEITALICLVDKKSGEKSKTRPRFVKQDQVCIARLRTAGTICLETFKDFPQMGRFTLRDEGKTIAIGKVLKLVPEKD
T1 sequence (Q96SW2 whole entry): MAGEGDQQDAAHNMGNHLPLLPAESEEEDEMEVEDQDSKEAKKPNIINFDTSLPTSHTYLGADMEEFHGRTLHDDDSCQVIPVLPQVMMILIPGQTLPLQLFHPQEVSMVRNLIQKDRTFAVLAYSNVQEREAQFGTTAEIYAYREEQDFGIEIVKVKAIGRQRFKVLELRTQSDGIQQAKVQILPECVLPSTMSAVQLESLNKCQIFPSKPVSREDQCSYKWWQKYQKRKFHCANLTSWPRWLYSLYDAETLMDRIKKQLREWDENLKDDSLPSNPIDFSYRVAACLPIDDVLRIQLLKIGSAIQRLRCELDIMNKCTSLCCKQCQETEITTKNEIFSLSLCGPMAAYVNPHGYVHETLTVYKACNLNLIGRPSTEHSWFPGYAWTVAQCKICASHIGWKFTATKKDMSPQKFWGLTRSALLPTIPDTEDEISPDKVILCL
T1 sequence (Q16531 whole entry partner): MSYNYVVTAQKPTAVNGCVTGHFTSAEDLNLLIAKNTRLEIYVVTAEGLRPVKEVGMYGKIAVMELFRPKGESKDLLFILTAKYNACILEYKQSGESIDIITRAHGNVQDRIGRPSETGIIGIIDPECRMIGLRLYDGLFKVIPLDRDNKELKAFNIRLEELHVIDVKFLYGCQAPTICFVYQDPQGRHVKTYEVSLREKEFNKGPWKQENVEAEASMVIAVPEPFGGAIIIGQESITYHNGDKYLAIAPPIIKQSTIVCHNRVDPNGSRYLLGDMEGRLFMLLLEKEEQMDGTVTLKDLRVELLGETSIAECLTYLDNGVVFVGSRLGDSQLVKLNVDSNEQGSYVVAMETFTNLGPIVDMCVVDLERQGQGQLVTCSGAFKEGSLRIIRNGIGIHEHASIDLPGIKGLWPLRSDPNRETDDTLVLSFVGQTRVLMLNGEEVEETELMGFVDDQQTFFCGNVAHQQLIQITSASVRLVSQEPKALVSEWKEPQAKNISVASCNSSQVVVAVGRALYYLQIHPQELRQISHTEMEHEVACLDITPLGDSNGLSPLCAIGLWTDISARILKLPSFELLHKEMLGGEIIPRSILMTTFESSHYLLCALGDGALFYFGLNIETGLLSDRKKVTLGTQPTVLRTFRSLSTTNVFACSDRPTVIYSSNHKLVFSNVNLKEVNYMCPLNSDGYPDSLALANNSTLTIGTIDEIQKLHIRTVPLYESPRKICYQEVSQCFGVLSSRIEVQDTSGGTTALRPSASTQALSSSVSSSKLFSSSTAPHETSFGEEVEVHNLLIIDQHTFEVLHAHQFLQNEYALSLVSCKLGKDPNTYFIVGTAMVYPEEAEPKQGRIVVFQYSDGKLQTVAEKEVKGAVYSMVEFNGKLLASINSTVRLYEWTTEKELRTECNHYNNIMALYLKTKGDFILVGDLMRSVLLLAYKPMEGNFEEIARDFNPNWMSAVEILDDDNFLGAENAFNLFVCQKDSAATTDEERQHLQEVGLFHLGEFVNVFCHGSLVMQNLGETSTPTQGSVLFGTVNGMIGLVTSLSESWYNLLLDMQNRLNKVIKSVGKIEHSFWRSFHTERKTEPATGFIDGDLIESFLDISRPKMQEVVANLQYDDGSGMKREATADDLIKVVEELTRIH
Description: HL-60 cells (4×10^^6 cells/well) were seeded in 6-well culture plate (Costar, 3516) and treated with a variety of concentrations of test compound. After 2h incubation, cells were collected and lysed. The protein concentration was determined by BCA protein assay kit from Thermo (23227). The GSPT1 protein level was determined by western blots, using GSPT1 polyclonal antibody. Proteins were loaded into each well of the pre-casting gels and subjected to electrophoretic separation by SDS-PAGE. The protein resolved by SDS-PAGE were transferred to PVDF, blocked by 5% skim milk and probed with anti-GSPT1 antibody (Proteintech, 10763-1-AP) or anti-β-actin antibody (CST, 3700S), using following standard western blotting procedure. Blots intensities were quantified using ImageJ software and the intensity of GSPT1 bands were normalized to beta-Actin bands, respectively. The GSPT1 degradation results were then calculated. Reported compound C84971 (see WO2021126974A1 and WO2021126973A1) was used as a reference.

[2] = tested on: HL-60 cells; assay: Cell viability assay (CellTiter-Glo); type: cell-based; conditions: Homo sapiens, 72 h incubation, 6-point serial dilution
Description: HL-60 cells were seeded at a density of 7000 cells per well in 96-well culture plates (Corning 3903) with IMDM and treated with test compounds following a 6-point serial dilution. RPMI 1640 (0.1% DMSO) was used as control for each well. After 72 h incubation, cell viability was determined using the CellTiter-Glo assay kit (Promega, G9242) according to the manufacturer's instructions. The dose-response curves were determined and IC50 values were calculated using the GraphPad Prism software following a nonlinear regression method.

inhibition at 0.1 µM [1] [%]	inhibition at 1 µM [1] [%]	IC50 [2] [nM]	Compound
45	51	1460	O=C1CCC(N2C(=O)c3ccc(N4CCC(CN5CCCN(c6ccccc6)C5=O)CC4)cc3C2=O)C(=O)N1 (stereo not drawn) [Compound 1, 2-(2,6-dioxopiperidin-3-yl)-5-{4-[(2-oxo-3-phenyl-1,3-diazinan-1-yl)methyl]piperidin-1-yl}isoindole-1,3-dione]
0	0	–	O=C1CCC(N2C(=O)c3ccc(N4CCC(CN5CCN(c6ccccc6)C5=O)CC4)cc3C2=O)C(=O)N1 (stereo not drawn) [Compound 2, 2-(2,6-dioxopiperidin-3-yl)-5-(4-((2-oxo-3-phenylimidazolidin-1-yl)methyl)piperidin-1-yl)isoindoline-1,3-dione]
30	48	234	O=C1CCC(N2C(=O)c3ccc(N4CCC(CN5CCCN(c6cccc(-c7cnccc7Cl)c6)C5=O)CC4)cc3C2=O)C(=O)N1 (stereo not drawn) [Compound 3, 5-(4-((3-(3-(4-chloropyridin-3-yl)phenyl)-2-oxotetrahydropyrimidin-1(2H)-yl)methyl)piperidin-1-yl)-2-(2,6-dioxopiperidin-3-yl)isoindoline-1,3-dione]
0	0	–	O=C1CCC(N2C(=O)c3ccc(N4CCC(CN5CCCN(c6ccccn6)C5=O)CC4)cc3C2=O)C(=O)N1 (stereo not drawn) [Compound 4, 2-(2,6-dioxopiperidin-3-yl)-5-(4-{[2-oxo-3-(pyridin-2-yl)-1,3-diazinan-1-yl]methyl}piperidin-1-yl)isoindole-1,3-dione]
17	7	–	O=C1CCC(N2C(=O)c3ccc(N4CCC(CN5CCCN(C6CCCCC6)C5=O)CC4)cc3C2=O)C(=O)N1 (stereo not drawn) [Compound 5, 5-(4-((3-cyclohexyl-2-oxotetrahydropyrimidin-1(2H)-yl)methyl)piperidin-1-yl)-2-(2,6-dioxopiperidin-3-yl) isoindoline-1,3-dione]
46	52	400	O=C1CCC(N2C(=O)c3ccc(N4CCC(CN5CCCCN(c6ccccc6)C5=O)CC4)cc3C2=O)C(=O)N1 (stereo not drawn) [Compound 6, 2-(2,6-dioxopiperidin-3-yl)-5-(4-((2-oxo-3-phenyl-1,3-diazepan-1-yl)methyl)piperidin-1-yl)isoindoline-1,3-dione]
0	10	–	CC(C)(C)N1CCCN(CC2CCN(c3ccc4c(c3)C(=O)N(C3CCC(=O)NC3=O)C4=O)CC2)C1=O (stereo not drawn) [Compound 7, 5-(4-((3-(tert-butyl)-2-oxotetrahydropyrimidin-1(2H)-yl)methyl)piperidin-1-yl)-2-(2,6-dioxopiperidin-3-yl)isoindoline-1,3-dione]
70	63	196	O=C1CCC(N2C(=O)c3ccc(N4CC(CCN5CCCN(c6cccc(-c7cnccc7Cl)c6)C5=O)C4)cc3C2=O)C(=O)N1 (stereo not drawn) [Compound 8, 5-(3-(2-(3-(3-(4-chloropyridin-3-yl)phenyl)-2-oxotetrahydropyrimidin-1(2H)-yl)ethyl)azetidin-1-yl)-2-(2,6-dioxopiperidin-3-yl)isoindoline-1,3-dione]
0	0	–	O=C1CCC(c2ccc(N3CCC(CN4CCCN(c5ccccc5)C4=O)CC3)cc2)C(=O)N1 (stereo not drawn) [Compound 13, 3-(4-{4-[(2-oxo-3-phenyl-1,3-diazinan-1-yl)methyl]piperidin-1-yl}phenyl) piperidine-2,6-dione]
0	0	–	O=C1CCC(N2C(=O)c3ccc(N4CCC(CN5CCCN(c6cccc(Cl)c6)C5=O)CC4)cc3C2=O)C(=O)N1 (stereo not drawn) [Compound 14, 5-(4-((3-(3-chlorophenyl)-2-oxotetrahydropyrimidin-1(2H)-yl)methyl)piperidin-1-yl)-2-(2,6-dioxopiperidin-3-yl)isoindoline-1,3-dione]
26	32	–	O=C1CCC(N2C(=O)c3ccc(N4CCC(CN5CCCN(Cc6ccc(F)cc6)C5=O)CC4)cc3C2=O)C(=O)N1 (stereo not drawn) [Compound 16, 2-(2,6-dioxopiperidin-3-yl)-5-(4-((3-(4-fluorobenzyl)-2-oxotetrahydropyrimidin-1(2H)-yl)methyl)piperidin-1-yl)isoindoline-1,3-dione]
36	22	–	O=C1CCC(N2C(=O)c3ccc(N4CCC(CN5CCN(Cc6ccc(F)cc6)C5=O)CC4)cc3C2=O)C(=O)N1 (stereo not drawn) [Compound 17, 2-(2,6-dioxopiperidin-3-yl)-5-(4-((3-(4-fluorobenzyl)-2-oxoimidazolidin-1-yl)methyl)piperidin-1-yl)isoindoline-1,3-dione]
32	36	–	Cc1csc(N2CCCN(CC3CCN(c4ccc5c(c4)C(=O)N(C4CCC(=O)NC4=O)C5=O)CC3)C2=O)n1 (stereo not drawn) [Compound 18, 2-(2,6-dioxopiperidin-3-yl)-5-(4-{[3-(4-methyl-1,3-thiazol-2-yl)-2-oxo-1,3-diazinan-1-yl]methyl}piperidin-1-yl)isoindole-1,3-dione]
0	0	–	O=C1CCC(c2ccc(N3CCC(CCN4CCCN(c5ccccc5)C4=O)CC3)cc2)C(=O)N1 (stereo not drawn) [Compound 20, 3-(4-(4-(2-(2-oxo-3-phenyltetrahydropyrimidin-1(2H)-yl)ethyl)piperidin-1-yl)phenyl)piperidine-2,6-dione]
35	40	–	O=C1CCC(N2C(=O)c3ccc(N4CC(CCN5CCCN(c6cccc(-c7ccn8ccnc8c7)c6)C5=O)C4)cc3C2=O)C(=O)N1 (stereo not drawn) [Compound 21, 2-(2,6-dioxopiperidin-3-yl)-5-(3-(2-(3-(3-(imidazo[1,2-a]pyridin-7-yl)phenyl)-2-oxotetrahydropyrimidin-1(2H)-yl)ethyl)azetidin-1-yl)isoindoline-1,3-dione]
26	29	–	Cc1nc2ncc(-c3cccc(N4CCCN(CCC5CN(c6ccc7c(c6)C(=O)N(C6CCC(=O)NC6=O)C7=O)C5)C4=O)c3)cc2o1 (stereo not drawn) [Compound 24, 2-(2,6-dioxopiperidin-3-yl)-5-(3-(2-(3-(3-(2-methyloxazolo[4,5-b]pyridin-6-yl)phenyl)-2-oxotetrahydropyrimidin-1(2H)-yl)ethyl)azetidin-1-yl)isoindoline-1,3-dione]
37	45	–	CCNc1ccc(-c2cccc(N3CCCN(CC4CCN(c5ccc6c(c5)C(=O)N(C5CCC(=O)NC5=O)C6=O)CC4)C3=O)c2)c(Cl)c1 (stereo not drawn) [Compound 30, 5-{4-[(3-{3-[2-chloro-4-(ethylamino)phenyl]phenyl}-2-oxo-1,3-diazinan-1-yl)methyl]piperidin-1-yl}-2-(2,6-dioxopiperidin-3-yl)isoindole-1,3-dione]
45	55	–	CNC(=O)c1ccc(-c2cccc(N3CCCN(CC4CCN(c5ccc6c(c5)C(=O)N(C5CCC(=O)NC5=O)C6=O)CC4)C3=O)c2)c(Cl)c1 (stereo not drawn) [Compound 31, 3-chloro-4-{3-[3-({1-[2-(2,6-dioxopiperidin-3-yl)-1,3-dioxoisoindol-5-yl]piperidin-4-yl}methyl)-2-oxo-1,3-diazinan-1-yl]phenyl}-N-methylbenzamide]
< 10	< 10	–	CN(C)C(=O)c1ccc(-c2cccc(N3CCCN(CC4CCN(c5ccc6c(c5)C(=O)N(C5CCC(=O)NC5=O)C6=O)CC4)C3=O)c2)c(Cl)c1 (stereo not drawn) [Compound 32, 3-chloro-4-{3-[3-({1-[2-(2,6-dioxopiperidin-3-yl)-1,3-dioxoisoindol-5-yl]piperidin-4-yl}methyl)-2-oxo-1,3-diazinan-1-yl]phenyl}-N,N-dimethylbenzamide]
< 10	15	–	CS(=O)(=O)c1ccc(-c2cccc(N3CCCN(CC4CCN(c5ccc6c(c5)C(=O)N(C5CCC(=O)NC5=O)C6=O)CC4)C3=O)c2)c(Cl)c1 (stereo not drawn) [Compound 33, 5-[4-({3-[3-(2-chloro-4-methanesulfonylphenyl)phenyl]-2-oxo-1,3-diazinan-1-yl}methyl)piperidin-1-yl]-2-(2,6-dioxopiperidin-3-yl)isoindole-1,3-dione]
58	53	–	CCn1ncc2ccc(-c3cccc(N4CCCN(CC5CCN(c6ccc7c(c6)C(=O)N(C6CCC(=O)NC6=O)C7=O)CC5)C4=O)c3)c(Cl)c21 (stereo not drawn) [Compound 34, 5-(4-((3-(3-(7-chloro-1-ethyl-1H-indazol-6-yl)phenyl)-2-oxotetrahydropyrimidin-1(2H)-yl)methyl)piperidin-1-yl)-2-(2,6-dioxopiperidin-3-yl)isoindoline-1,3-dione]
0	0	–	CCc1c[nH]c2ccc(-c3cc(N4CCCN(CC5CCN(c6ccc7c(c6)C(=O)N(C6CCC(=O)NC6=O)C7=O)CC5)C4=O)ccn3)c(Cl)c12 (stereo not drawn) [Compound 35, 5-(4-((3-(2-(4-chloro-3-ethyl-1H-indol-5-yl)pyridin-4-yl)-2-oxotetrahydropyrimidin-1(2H)-yl)methyl)piperidin-1-yl)-2-(2,6-dioxopiperidin-3-yl)isoindoline-1,3-dione]
